Several values for one entry are separate records, joined by “and”; a condition that tells them apart may be missing. Equal entries are not always repeated. Where two headings read alike, the source gives them in different places. Blank lines part the entries; values can stand above or below the compound they belong to.
Experiments:
[1] = system: Fadu cells; assay: CellTiter-Glo luminescent cell viability assay, Fadu; conditions: for Fadu Cell viability (% of controll) / viability at 0.7 µM / viability at 1 µM / viability at 1.5 µM / viability at 2.3 µM / viability at 7.7 µM / viability at 17.3 µM / viability at 26 µM: dose–response, individual replicates; for viability at 0.7 µM / viability at 1 µM / viability at 1.5 µM / viability at 2.3 µM / viability at 7.7 µM / viability at 17.3 µM / viability at 26 µM / IC50: Homo sapiens, FaDu; for viability at 0.7 µM: read-out: Fadu Cell viability (% of controll), 0.7 μM; for viability at 1 µM: read-out: Fadu Cell viability (% of controll), 1 μM; for viability at 1.5 µM: read-out: Fadu Cell viability (% of controll), 1.5 μM; for viability at 2.3 µM: read-out: Fadu Cell viability (% of controll), 2.3 μM; for viability at 7.7 µM: read-out: Fadu Cell viability (% of controll), 7.7 μM; for viability at 17.3 µM: read-out: Fadu Cell viability (% of controll), 17.3 μM; for viability at 26 µM: read-out: Fadu Cell viability (% of controll), 26 μM; for Selectivity Index (SI) Fibroblast/Fadu: ratio of mean best-fit IC50 for primary fibroblasts and best-fit IC50 for Fadu
[2] = system: PANC-1 cells; assay: CellTiter-Glo luminescent cell viability assay, PANC-1; conditions: for viability at 0.7 µM: read-out: PANC-1 Cell viability (% of controll), 0.7 μM; for viability at 1 µM: read-out: PANC-1 Cell viability (% of controll), 1 μM; for viability at 1.5 µM: read-out: PANC-1 Cell viability (% of controll), 1.5 μM; for viability at 3.4 µM: read-out: PANC-1 Cell viability (% of controll), 3.4 μM; for viability at 5.1 µM: read-out: PANC-1 Cell viability (% of controll), 5.1 μM; for viability at 7.7 µM: read-out: PANC-1 Cell viability (% of controll), 7.7 μM; for viability at 17.3 µM: read-out: PANC-1 Cell viability (% of controll), 17.3 μM; for viability at 26 µM: read-out: PANC-1 Cell viability (% of controll), 26 μM; for Selectivity Index (SI) Fibroblast/PANC-1: ratio of mean best-fit IC50 for primary fibroblasts and best-fit IC50 for PANC-1
[3] = CellTiter-Glo luminescent cell viability assay, primary fibroblasts; conditions: human, primary skin fibroblasts (non-tumorous), Primer fibroblast Cell viability (% of controll), 72 h, dose–response, individual replicates
[4] = system: non-tumorous primary fibroblast cells; assay: as above; conditions: for Primer fibroblast Cell viability (% of controll): dose–response, individual replicates; for IC50: Homo sapiens, Fibroblast
[5] = 72 h, read-out: IC50 Value ± SEM Fadu, 72 h treatment, best-fit values, n = 3
[6] = read-out: Fadu IC50 values, Mean, mean of independently fitted replicate IC50 values (Supplement S.6)
[7] = 0.7 μM, 72 h, dose–response, individual replicates
[8] = 1 μM, 72 h, dose–response, individual replicates
[9] = 1.5 μM, 72 h, dose–response, individual replicates
[10] = 2.3 μM, 72 h, dose–response, individual replicates
[11] = 3.4 μM, 72 h, dose–response, individual replicates
[12] = 5.1 μM, 72 h, dose–response, individual replicates
[13] = 7.7 μM, 72 h, dose–response, individual replicates
[14] = 17.3 μM, 72 h, dose–response, individual replicates
[15] = 26 μM, 72 h, dose–response, individual replicates
[16] = Homo sapiens, PANC-1, 72 h, read-out: IC50 Value ± SEM PANC-1, 72 h treatment, best-fit values, n = 3
[17] = Homo sapiens, PANC-1, 72 h, 72 h, dose–response, individual replicates
[18] = Homo sapiens, PANC-1, read-out: PANC-1 IC50 values, Mean, mean of independently fitted replicate IC50 values (Supplement S.6)
[19] = 72 h, read-out: IC50 Value ± SEM Primary Fibroblast, 72 h treatment, best-fit values, n = 3
[20] = read-out: Primary fibroblast IC50 values, Mean, mean of independently fitted replicate IC50 values (Supplement S.6), ONC201 value mathematically estimated from inflection point

IC50 [2, 16]: 3.1 ± 0.17 µM
IC50 [2, 18]: 3.06 µM
Compound: CNCC#Cc1cccc(CN2C(=O)C3=C(CCN(Cc4ccc(-n5cc(-c6ccc(F)cc6)nn5)cc4)C3)N3CCN=C23)c1 [43b]
Fadu Cell viability (% of controll) ([1]; 0.7 μM, 72 h): 108 % of controll and 104 % of controll
Fadu Cell viability (% of controll) ([1]; 1 μM, 72 h): 106 % of controll and 101 % of controll
Fadu Cell viability (% of controll) ([1]; 2.3 μM, 72 h): 96 % of controll and 91 % of controll
Fadu Cell viability (% of controll) ([1]; 3.4 μM, 72 h): 58 % of controll and 46 % of controll and 27 % of controll
Fadu Cell viability (% of controll) ([1]; 5.1 μM, 72 h): 1 % of controll and 0 % of controll
Fadu Cell viability (% of controll) ([1]; 7.7 μM, 72 h): 0 % of controll
Fadu Cell viability (% of controll) ([1]; 17.3 μM, 72 h): 0 % of controll
Fadu Cell viability (% of controll) ([1]; 26 μM, 72 h): 0 % of controll
viability at 0.7 µM ([1]; 72 h, 72 h): 108%
viability at 1 µM ([1]; 72 h, 72 h): 102%
viability at 1.5 µM ([1]; 72 h, 72 h): 105%
viability at 2.3 µM ([1]; 72 h, 72 h): 91%
viability at 7.7 µM ([1]; 72 h, 72 h): 0%
viability at 17.3 µM ([1]; 72 h, 72 h): 0%
viability at 26 µM ([1]; 72 h, 72 h): 0%
IC50 [1, 5]: 3.2 ± 0.06 µM
IC50 [1, 6]: 3.25 µM
Selectivity Index (SI) Fibroblast/Fadu [1]: 1.1
PANC-1 Cell viability (% of controll) [2, 7]: 103 % of controll and 101 % of controll
PANC-1 Cell viability (% of controll) [2, 8]: 107 % of controll
PANC-1 Cell viability (% of controll) [2, 9]: 99 % of controll and 110 % of controll
PANC-1 Cell viability (% of controll) [2, 10]: 102 % of controll and 103 % of controll
PANC-1 Cell viability (% of controll) [2, 11]: 10 % of controll and 7 % of controll
PANC-1 Cell viability (% of controll) [2, 12]: 0 % of controll
PANC-1 Cell viability (% of controll) [2, 13]: 0 % of controll
PANC-1 Cell viability (% of controll) [2, 14]: 0 % of controll
PANC-1 Cell viability (% of controll) [2, 15]: 0 % of controll
viability at 0.7 µM [2, 17]: 104%
viability at 1 µM [2, 17]: 104%
viability at 1.5 µM [2, 17]: 104%
viability at 2.3 µM ([2]; Homo sapiens, PANC-1, 72 h, read-out: PANC-1 Cell viability (% of controll), 2.3 μM, 72 h, dose–response, individual replicates): 106%
viability at 3.4 µM [2, 17]: 13%
viability at 5.1 µM [2, 17]: 0%
viability at 7.7 µM [2, 17]: 0%
viability at 17.3 µM [2, 17]: 0%
viability at 26 µM [2, 17]: 0%
Selectivity Index (SI) Fibroblast/PANC-1 [2]: 1.1
viability at 72 h, 0.7 µM [3]: 96%
viability at 72 h, 1 µM [3]: 102%
viability at 72 h, 1.5 µM ([3]; 1.5 μM): 107%
viability at 72 h, 2.3 µM [3]: 105%
viability at 72 h, 5.1 µM [3]: 0%
viability at 72 h, 7.7 µM [3]: 0%
viability at 72 h, 17.3 µM [3]: 0%
viability at 72 h, 26 µM [3]: 0%
Primer fibroblast Cell viability (% of controll) ([4]; 0.7 μM, 72 h): 105 % of controll and 104 % of controll
Primer fibroblast Cell viability (% of controll) ([4]; 1 μM, 72 h): 113 % of controll and 103 % of controll
Primer fibroblast Cell viability (% of controll) ([4]; 1.5 μM, 72 h): 105 % of controll and 97 % of controll
Primer fibroblast Cell viability (% of controll) ([4]; 2.3 μM, 72 h): 99 % of controll
Primer fibroblast Cell viability (% of controll) ([4]; 3.4 μM, 72 h): 89 % of controll and 54 % of controll and 50 % of controll
Primer fibroblast Cell viability (% of controll) ([4]; 5.1 μM, 72 h): 0 % of controll
Primer fibroblast Cell viability (% of controll) ([4]; 7.7 μM, 72 h): 0 % of controll
Primer fibroblast Cell viability (% of controll) ([4]; 17.3 μM, 72 h): 0 % of controll
Primer fibroblast Cell viability (% of controll) ([4]; 26 μM, 72 h): 0 % of controll
IC50 [4, 19]: 3.5 ± 0.17 µM
IC50 [4, 20]: 3.46 µM

IC50 [2, 16]: 2.5 ± 0.94 µM
IC50 [2, 18]: 2.48 µM
Compound: CNCC#Cc1cccc(CN2C(=O)C3=C(CCN(Cc4ccc(-n5cc(-c6cccc(F)c6)nn5)cc4)C3)N3CCN=C23)c1 [43a]
Fadu Cell viability (% of controll) ([1]; 0.7 μM, 72 h): 109 % of controll
Fadu Cell viability (% of controll) ([1]; 1 μM, 72 h): 109 % of controll
Fadu Cell viability (% of controll) ([1]; 1.5 μM, 72 h): 104 % of controll and 103 % of controll
Fadu Cell viability (% of controll) ([1]; 2.3 μM, 72 h): 80 % of controll and 88 % of controll
Fadu Cell viability (% of controll) ([1]; 3.4 μM, 72 h): 71 % of controll and 29 % of controll and 38 % of controll
Fadu Cell viability (% of controll) ([1]; 5.1 μM, 72 h): 5 % of controll and 0 % of controll
Fadu Cell viability (% of controll) ([1]; 7.7 μM, 72 h): 0 % of controll
Fadu Cell viability (% of controll) ([1]; 17.3 μM, 72 h): 0 % of controll
Fadu Cell viability (% of controll) ([1]; 26 μM, 72 h): 0 % of controll
viability at 0.7 µM ([1]; 72 h, 72 h): 108%
viability at 1 µM ([1]; 72 h, 72 h): 112%
viability at 1.5 µM ([1]; 72 h, 72 h): 103%
viability at 2.3 µM ([1]; 72 h, 72 h): 95%
viability at 7.7 µM ([1]; 72 h, 72 h): 0%
viability at 17.3 µM ([1]; 72 h, 72 h): 0%
viability at 26 µM ([1]; 72 h, 72 h): 0%
IC50 [1, 5]: 3.2 ± 0.1 µM
IC50 [1, 6]: 3.18 µM
Selectivity Index (SI) Fibroblast/Fadu [1]: 1.0
PANC-1 Cell viability (% of controll) [2, 7]: 108 % of controll and 111 % of controll
PANC-1 Cell viability (% of controll) [2, 8]: 112 % of controll and 115 % of controll
PANC-1 Cell viability (% of controll) [2, 9]: 102 % of controll and 112 % of controll
PANC-1 Cell viability (% of controll) [2, 10]: 93 % of controll and 84 % of controll and 107 % of controll
PANC-1 Cell viability (% of controll) [2, 11]: 0 % of controll
PANC-1 Cell viability (% of controll) [2, 12]: 0 % of controll
PANC-1 Cell viability (% of controll) [2, 13]: 0 % of controll
PANC-1 Cell viability (% of controll) [2, 14]: 0 % of controll
PANC-1 Cell viability (% of controll) [2, 15]: 0 % of controll
viability at 0.7 µM [2, 17]: 114%
viability at 1 µM [2, 17]: 110%
viability at 1.5 µM [2, 17]: 102%
viability at 3.4 µM [2, 17]: 0%
viability at 5.1 µM [2, 17]: 0%
viability at 7.7 µM [2, 17]: 0%
viability at 17.3 µM [2, 17]: 0%
viability at 26 µM [2, 17]: 0%
Selectivity Index (SI) Fibroblast/PANC-1 [2]: 1.3
viability at 72 h, 0.7 µM [3]: 99%
viability at 72 h, 1 µM [3]: 109%
viability at 72 h, 2.3 µM [3]: 111%
viability at 72 h, 3.4 µM ([3]; 3.4 μM): 35%
viability at 72 h, 5.1 µM [3]: 0%
viability at 72 h, 7.7 µM [3]: 0%
viability at 72 h, 17.3 µM [3]: 0%
viability at 72 h, 26 µM [3]: 0%
Primer fibroblast Cell viability (% of controll) ([4]; 0.7 μM, 72 h): 107 % of controll
Primer fibroblast Cell viability (% of controll) ([4]; 1 μM, 72 h): 108 % of controll and 106 % of controll
Primer fibroblast Cell viability (% of controll) ([4]; 1.5 μM, 72 h): 114 % of controll and 125 % of controll and 99 % of controll
Primer fibroblast Cell viability (% of controll) ([4]; 2.3 μM, 72 h): 101 % of controll and 104 % of controll
Primer fibroblast Cell viability (% of controll) ([4]; 3.4 μM, 72 h): 34 % of controll and 29 % of controll
Primer fibroblast Cell viability (% of controll) ([4]; 5.1 μM, 72 h): 0 % of controll
Primer fibroblast Cell viability (% of controll) ([4]; 7.7 μM, 72 h): 0 % of controll
Primer fibroblast Cell viability (% of controll) ([4]; 17.3 μM, 72 h): 0 % of controll
Primer fibroblast Cell viability (% of controll) ([4]; 26 μM, 72 h): 0 % of controll
IC50 [4, 19]: 3.2 ± 0.07 µM
IC50 [4, 20]: 3.23 µM
